Test results published in ChEMBL document CHEMBL3421566 (J Med Chem, 2015).
Converted amounts (≈) assume the structure as drawn. The source made the active and inactive calls. The calls are words filed in the database; no cut-off is given here.

How the values were obtained:
[1] = tested on: Mycolicibacterium smegmatis; experiment: Antibacterial activity against Mycobacterium smegmatis ATCC 607 after 24 to 48 hrs by two-fold broth microdilution method; type: functional
Escherichia coli [2] = experiment: Antibacterial activity against Escherichia coli ATCC 8739 by two-fold broth microdilution method; type: functional
[3] = Inhibition of recombinant Plasmodium falciparum Dxr expressed in Escherichia coli C43(DE3) using DOXP as substrate assessed as NADPH oxidation by spectrophotometric analysis
Escherichia coli [4] = experiment: Antibacterial activity against Escherichia coli ATCC 25922 by two-fold broth microdilution method; type: functional
[5] = tested on: Mycolicibacterium smegmatis; experiment: Antibacterial activity against Mycobacterium smegmatis ATCC 700084 after 24 to 48 hrs by two-fold broth microdilution method; type: functional
Escherichia coli [6] = experiment: Antibacterial activity against Escherichia coli K-12 by two-fold broth microdilution method; type: functional
[7] = molecular target: T1, 1-deoxy-D-xylulose 5-phosphate reductoisomerase (Mycobacterium tuberculosis) (UniProt P9WNS1); experiment: Inhibition of recombinant Mycobacterium tuberculosis Dxr expressed in Escherichia coli BL21 CodonPlus (DE3)-RIL cells using DOXP as substrate assessed as NADPH oxidation at 100 uM by spectrophotometric analysis
T1 sequence (whole entry): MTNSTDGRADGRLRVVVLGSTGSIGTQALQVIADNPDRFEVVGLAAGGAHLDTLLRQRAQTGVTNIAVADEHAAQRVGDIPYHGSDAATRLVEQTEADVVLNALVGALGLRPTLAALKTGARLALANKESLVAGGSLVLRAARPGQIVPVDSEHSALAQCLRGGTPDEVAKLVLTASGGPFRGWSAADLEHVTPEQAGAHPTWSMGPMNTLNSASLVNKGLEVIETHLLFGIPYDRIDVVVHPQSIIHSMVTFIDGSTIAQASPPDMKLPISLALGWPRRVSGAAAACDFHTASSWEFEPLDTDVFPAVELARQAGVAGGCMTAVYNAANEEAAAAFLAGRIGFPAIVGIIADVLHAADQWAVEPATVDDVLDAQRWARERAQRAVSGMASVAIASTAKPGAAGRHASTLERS

Plasmodium falciparum [8] = experiment: Schizontocidal activity against Plasmodium falciparum K1 infected in human RBC after 72 hrs by Malstat reagent-based spectrophotometric analysis; type: functional; settings: K1, 72 h
[9] = molecular target: T2, 1-deoxy-D-xylulose 5-phosphate reductoisomerase (Escherichia coli) (UniProt W8T2T2); experiment: Inhibition of recombinant Escherichia coli Dxr expressed in Escherichia coli BL21 CodonPlus (DE3)-RIL cells using DOXP as substrate assessed as NADPH oxidation at 100 uM preincubated for 5 mins with NADPH followed by substrate addition by spectrophotometric analysis
T2 sequence (whole entry): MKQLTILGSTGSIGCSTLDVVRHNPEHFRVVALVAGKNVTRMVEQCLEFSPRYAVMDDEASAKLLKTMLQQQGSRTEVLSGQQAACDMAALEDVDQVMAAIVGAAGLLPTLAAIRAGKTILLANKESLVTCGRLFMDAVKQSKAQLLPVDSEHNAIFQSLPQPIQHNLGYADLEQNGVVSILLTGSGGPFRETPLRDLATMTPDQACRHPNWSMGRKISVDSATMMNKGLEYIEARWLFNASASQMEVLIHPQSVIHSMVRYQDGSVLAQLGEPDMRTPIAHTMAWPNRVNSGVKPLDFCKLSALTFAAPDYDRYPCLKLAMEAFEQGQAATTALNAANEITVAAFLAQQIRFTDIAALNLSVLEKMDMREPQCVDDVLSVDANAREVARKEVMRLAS

[10] = molecular target: T3, 1-deoxy-D-xylulose 5-phosphate reductoisomerase (Mycobacterium tuberculosis, UniProt P9WNS1); experiment: Inhibition of recombinant Mycobacterium tuberculosis Dxr expressed in Escherichia coli BL21 CodonPlus (DE3)-RIL cells using DOXP as substrate assessed as NADPH oxidation by spectrophotometric analysis
T3 sequence (P9WNS1 whole entry): T1 sequence (whole entry)

[11] = molecular target: T4, 1-deoxy-D-xylulose 5-phosphate reductoisomerase (Escherichia coli, UniProt W8T2T2); experiment: Inhibition of recombinant Escherichia coli Dxr expressed in Escherichia coli BL21 CodonPlus (DE3)-RIL cells using DOXP as substrate assessed as NADPH oxidation preincubated for 5 mins with NADPH followed by substrate addition by spectrophotometric analysis
T4 sequence (W8T2T2 whole entry): T2 sequence (whole entry)

Plasmodium falciparum [12] = experiment: Inhibition of recombinant Plasmodium falciparum Dxr expressed in Escherichia coli C43(DE3) using DOXP as substrate assessed as NADPH oxidation at 100 uM by spectrophotometric analysis

O=CN(O)CCCP(=O)(O)O [FOSMIDOMYCIN]
MIC50 [1]: > 250 µM
MIC50 (Escherichia coli [2]): 0.98 µM (≈ 0.179 µg/mL)
IC50 [3]: 36 nM
MIC50 (Escherichia coli [4]): 250 µM (≈ 45.8 µg/mL)
MIC50 [5]: > 250 µM
MIC50 (Escherichia coli [6]): 7.8 µM (≈ 1.43 µg/mL)

CN(O)C(=O)CC(CP(=O)(O)O)c1ccc(Cl)cc1 (centres undefined)
MIC50 [1]: > 250 µM
inhibition [7]: inactive
MIC50 (Plasmodium falciparum [8]): > 64 µM
MIC50 (Escherichia coli [2]): > 250 µM
MIC50 (Escherichia coli [4]): > 250 µM
MIC50 [5]: > 250 µM
MIC50 (Escherichia coli [6]): > 250 µM
inhibition [9]: inactive

CN(O)C(=O)CC(CCc1ccccc1)CP(=O)(O)O (centres undefined)
MIC50 [1]: > 250 µM
MIC50 (Plasmodium falciparum [8]): 35.4 µM (≈ 10.7 µg/mL)
MIC50 (Escherichia coli [2]): > 250 µM
IC50 [3]: 1360 nM
MIC50 (Escherichia coli [4]): > 250 µM
MIC50 [5]: > 250 µM
MIC50 (Escherichia coli [6]): > 250 µM
IC50 [10]: 31400 nM

CN(O)C(=O)CC(CCCCc1ccccc1)CP(=O)(O)O (centres undefined)
MIC50 [1]: > 250 µM
MIC50 (Plasmodium falciparum [8]): < 0.25 µM
IC50 [11]: 273000 nM
MIC50 (Escherichia coli [2]): > 250 µM
IC50 [3]: 69 nM
MIC50 (Escherichia coli [4]): > 250 µM
MIC50 [5]: > 250 µM
MIC50 (Escherichia coli [6]): > 250 µM
IC50 [10]: 6670 nM

CN(O)C(=O)CC(CCCc1ccccc1)CP(=O)(O)O (centres undefined)
MIC50 [1]: > 250 µM
MIC50 (Plasmodium falciparum [8]): 0.43 µM (≈ 0.136 µg/mL)
IC50 [11]: 10300 nM
MIC50 (Escherichia coli [2]): > 250 µM
IC50 [3]: 117 nM
MIC50 (Escherichia coli [4]): > 250 µM
MIC50 [5]: > 250 µM
MIC50 (Escherichia coli [6]): > 250 µM
IC50 [10]: 843 nM

CC(CC(=O)N(C)O)CP(=O)(O)O (centres undefined)
MIC50 (Plasmodium falciparum [8]): 0.74 µM (≈ 0.156 µg/mL)
IC50 [11]: 7130 nM
IC50 [10]: 205 nM

CN(O)C(=O)CC(CP(=O)(O)O)c1ccc(Cl)c(Cl)c1 (centres undefined)
MIC50 [1]: > 250 µM
inhibition [7]: inactive
MIC50 (Plasmodium falciparum [8]): > 64 µM
MIC50 (Escherichia coli [2]): > 250 µM
MIC50 (Escherichia coli [4]): > 250 µM
MIC50 [5]: > 250 µM
MIC50 (Escherichia coli [6]): > 250 µM
inhibition [9]: inactive

CN(O)C(=O)CC(CP(=O)(O)O)c1ccccc1 (centres undefined)
MIC50 [1]: > 250 µM
inhibition [7]: inactive
MIC50 (Plasmodium falciparum [8]): > 64 µM
MIC50 (Escherichia coli [2]): > 250 µM
IC50 [3]: 3300 nM
MIC50 (Escherichia coli [4]): > 250 µM
MIC50 [5]: > 250 µM
MIC50 (Escherichia coli [6]): > 250 µM
inhibition [9]: inactive

COc1ccc(C(CC(=O)N(C)O)CP(=O)(O)O)cc1 (centres undefined)
MIC50 [1]: > 250 µM
inhibition [7]: inactive
MIC50 (Plasmodium falciparum [8]): > 64 µM
MIC50 (Escherichia coli [2]): > 250 µM
IC50 [3]: 18800 nM
MIC50 (Escherichia coli [4]): > 250 µM
MIC50 [5]: > 250 µM
MIC50 (Escherichia coli [6]): > 250 µM
inhibition [9]: inactive

Cc1ccc(C(CC(=O)N(C)O)CP(=O)(O)O)cc1 (centres undefined)
MIC50 [1]: > 250 µM
inhibition [7]: inactive
MIC50 (Plasmodium falciparum [8]): > 64 µM
MIC50 (Escherichia coli [2]): > 250 µM
IC50 [3]: 9300 nM
MIC50 (Escherichia coli [4]): > 250 µM
MIC50 [5]: > 250 µM
MIC50 (Escherichia coli [6]): > 250 µM
inhibition [9]: inactive

CC(=O)N(O)CCCP(=O)(O)O [FR-900098]
MIC50 [1]: > 250 µM
MIC50 (Escherichia coli [2]): 7.8 µM (≈ 1.54 µg/mL)
MIC50 (Escherichia coli [4]): 62.5 µM (≈ 12.3 µg/mL)
MIC50 [5]: > 250 µM
MIC50 (Escherichia coli [6]): 15.6 µM (≈ 3.08 µg/mL)

CN(O)C(=O)CC(Cc1ccccc1)CP(=O)(O)O (centres undefined)
MIC50 (Plasmodium falciparum [8]): ≥ 56.8 µM
inhibition [9]: Active
inhibition (Plasmodium falciparum [12]): Active

CN(O)C(=O)CCCP(=O)(O)O
MIC50 [1]: > 250 µM
MIC50 (Plasmodium falciparum [8]): 0.26 µM (≈ 0.0513 µg/mL)
IC50 [11]: 1150 nM
MIC50 (Escherichia coli [2]): 31.2 µM (≈ 6.16 µg/mL)
MIC50 (Escherichia coli [4]): 15.6 µM (≈ 3.08 µg/mL)
MIC50 [5]: > 250 µM
MIC50 (Escherichia coli [6]): 31.2 µM (≈ 6.16 µg/mL)
IC50 [10]: 159 nM
